Results from patent US9636336B2, “Aminoester derivatives” (CHIESI FARMACEUTICI S.p.A., priority 2015, dated 2017).
Read-outs that look alike come from different tables or passages of the source.

Assays:
[1] = target: Human M3 receptor membranes (Homo sapiens (Human), UniProt P20309); experiment: M3 Receptor radioligand binding assay
Method: M3 Receptor Radioligand Binding Assay:
The assay is carried out in 96-well polypropylene plates in a volume of 250 μl. […] The final assay concentration of DMSO is 0.5% (v/v). The plates are sealed and incubated for 2 h at room temperature on an orbital shaker (slow speed). Membranes are harvested onto 96-well unifilter GF/C filter plates pre-treated with 0.5% polyethyleneimine (v/v), using a filter manifold, washed four times with 200 μl of assay buffer. The plates are dried before addition of 50 μl of microscint-0, sealed then read in a Trilux Microbeta scintillation counter. IC50 values are determined from competition curves using a non-linear curve fitting program. Ki values are calculated from IC50 values by the Cheng and Prusoff equation.

Human recombinant PDE4B2 = Human recombinant PDE4B2 (Homo sapiens (Human), UniProt Q07343); experiment: PDE4B2 HTRF assay; type: biochemical
Method: PDE4B2 activity is detected using the LANCE Ultra cAMP homogeneous time resolved fluorescence resonance energy transfer (TR-FRET) assay from Perkin Elmer. The assay is based on the competition between the europium (Eu) chelate-labeled cAMP tracer and sample cAMP for binding sites on cAMP-specific monoclonal antibodies (mAb) labelled with the ULight™ dye. The assay is carried out in 384-well low volume plates in a volume of 10 μl. Human recombinant PDE4B2 (80 pM) is incubated for 2 h with 3 nM cAMP in buffer containing 1×HBSS, 5 mM HEPES, 3 mM MgCl2, 0.1% BSA, pH 7.4 with or without test compounds. The enzymatic reactions are efficiently stopped by the addition of 500 μM IBMX present in the combined Stop/Detection buffer containing europium (Eu) chelate-labeled cAMP tracer and cAMP-specific monoclonal antibodies (mAb) labelled with the ULight™ dye. […] IC50 values are determined from competition curves using a non-linear curve fitting program.

[2] = M3 Receptor radioligand binding assay, read-out: M3 IC50 activity
[3] = PDE4B2 HTRF assay, read-out: PDE4B2 IC50 activity

Chain of Human recombinant PDE4B2 (Q07343 other isoform, or with tags, fused parts or gaps): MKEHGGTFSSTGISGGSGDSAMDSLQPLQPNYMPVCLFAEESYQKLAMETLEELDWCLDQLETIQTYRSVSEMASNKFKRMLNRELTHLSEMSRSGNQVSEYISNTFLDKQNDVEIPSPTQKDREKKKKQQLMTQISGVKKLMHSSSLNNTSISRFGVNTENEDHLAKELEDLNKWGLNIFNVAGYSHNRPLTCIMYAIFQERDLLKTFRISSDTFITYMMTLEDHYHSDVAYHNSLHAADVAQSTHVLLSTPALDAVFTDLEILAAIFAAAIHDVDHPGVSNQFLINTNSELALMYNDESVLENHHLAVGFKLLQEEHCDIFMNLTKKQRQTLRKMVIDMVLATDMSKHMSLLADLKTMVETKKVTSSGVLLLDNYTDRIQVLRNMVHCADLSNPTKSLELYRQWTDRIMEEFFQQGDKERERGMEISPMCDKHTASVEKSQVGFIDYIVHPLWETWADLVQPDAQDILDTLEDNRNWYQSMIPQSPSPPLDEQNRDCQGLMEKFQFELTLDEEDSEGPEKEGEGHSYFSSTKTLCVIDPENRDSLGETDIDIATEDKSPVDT
Chain of Human M3 receptor membranes (P20309 whole entry): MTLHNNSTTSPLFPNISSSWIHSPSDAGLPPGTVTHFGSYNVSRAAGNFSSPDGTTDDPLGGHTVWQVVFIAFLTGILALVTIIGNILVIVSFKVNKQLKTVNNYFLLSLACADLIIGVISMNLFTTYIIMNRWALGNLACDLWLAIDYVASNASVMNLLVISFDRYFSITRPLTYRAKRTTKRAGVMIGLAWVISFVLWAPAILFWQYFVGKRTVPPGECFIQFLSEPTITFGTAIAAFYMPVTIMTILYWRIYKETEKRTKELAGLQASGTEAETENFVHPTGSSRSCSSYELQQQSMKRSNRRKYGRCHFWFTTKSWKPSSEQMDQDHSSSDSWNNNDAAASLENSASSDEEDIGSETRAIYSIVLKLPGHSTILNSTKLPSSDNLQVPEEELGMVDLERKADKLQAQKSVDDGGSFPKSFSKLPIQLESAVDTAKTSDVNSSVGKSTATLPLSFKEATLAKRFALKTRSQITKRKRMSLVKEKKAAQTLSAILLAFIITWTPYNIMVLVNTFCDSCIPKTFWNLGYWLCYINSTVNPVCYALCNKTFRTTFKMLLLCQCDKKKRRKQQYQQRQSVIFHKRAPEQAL

## COc1ccc([C@H](Cc2c(Cl)c[n+]([O-])cc2Cl)OC(=O)c2ccc(CNCC(O)(C(=O)OCC3CCN(C)CC3)c3cccs3)s2)cc1OC (stereo partly drawn) [Example 1, [(1S)-2-(3,5-dichloro-1-oxido-pyridin-1-ium-4-yl)-1-(3,4-dimethoxyphenyl)ethyl]5-[[[2-hydroxy-3-[(1-methyl-4-piperidyl)methoxy]-3-oxo-2-(2-thienyl)propyl]amino]methyl]-thiophene-2-carboxylate]
[1]
  IC50: 10 to 100 nM
Human recombinant PDE4B2
  IC50: 1 to 10 nM

## COc1ccc([C@H](Cc2c(Cl)c[n+]([O-])cc2Cl)OC(=O)c2ccc(CNC(C(=O)OC[C@H]3CCN(C)C3)c3ccccc3)s2)cc1OC (stereo partly drawn) [Example 18, [(1S)-2-(3,5-dichloro-1-oxido-pyridin-1-ium-4-yl)-1-(3,4-dimethoxyphenyl)ethyl] 5-[[[2-[[(3S)-1-methylpyrrolidin-3-yl]methoxy]-2-oxo-1-phenyl-ethyl]amino]methyl]thiophene-2-carboxylate]
[1]; [2]
  IC50: 1 to 10 nM
Human recombinant PDE4B2; [3]
  IC50: 1 to 10 nM

## COc1ccc([C@H](Cc2c(Cl)c[n+]([O-])cc2Cl)OC(=O)c2ccc(CNC(C(=O)OCC3(C)CCN(C)CC3)c3ccccc3)s2)cc1OC (mixture of isomers) [Example 2, [(1S)-2-(3,5-dichloro-1-oxido-pyridin-1-ium-4-yl)-1-(3,4-dimethoxyphenyl)ethyl]5-[[[2-[(1,4-dimethyl-4-piperidyl)methoxy]-2-oxo-1-phenyl-ethyl]amino]methyl]thiophene-2-carboxylate]
[1]; [2]
  IC50: 10 to 100 nM
Human recombinant PDE4B2; [3]
  IC50: 1 to 10 nM

## COc1ccc([C@H](Cc2c(Cl)c[n+]([O-])cc2Cl)OC(=O)c2ccc(CNC(C(=O)OC[C@@H]3CCN(C)C3)c3ccccc3)s2)cc1OC (stereo partly drawn) [Example 17, [(1S)-2-(3,5-dichloro-1-oxido-pyridin-1-ium-4-yl)-1-(3,4-dimethoxyphenyl)ethyl] 5-[[[2-[[(3R)-1-methylpyrrolidin-3-yl]methoxy]-2-oxo-1-phenyl-ethyl]amino]methyl]thiophene-2-carboxylate]
[1]; [2]
  IC50: 1 to 10 nM
Human recombinant PDE4B2; [3]
  IC50: 1 to 10 nM

## COc1ccc([C@H](Cc2c(Cl)c[n+]([O-])cc2Cl)OC(=O)c2ccc(CNC(C(=O)OC[C@@H]3CN(C)CCN3C)c3ccccc3)s2)cc1OC (stereo partly drawn) [Example 32, [(1S)-2-(3,5-dichloro-1-oxido-pyridin-1-ium-4-yl)-1-(3,4-dimethoxyphenyl)ethyl] 5-[[[2-[[(2S)-1,4-dimethylpiperazin-2-yl]methoxy]-2-oxo-1-phenyl-ethyl]amino]methyl]thiophene-2-carboxylate]
[1]; [2]
  IC50: 10 to 100 nM
Human recombinant PDE4B2; [3]
  IC50: 1 to 10 nM

## COc1ccc([C@H](Cc2c(Cl)c[n+]([O-])cc2Cl)OC(=O)c2ccc(CNC(C(=O)OC[C@@H]3CCCN(C)C3)c3ccccc3)s2)cc1OC (stereo partly drawn) [Example 14, [(1S)-2-(3,5-dichloro-1-oxido-pyridin-1-ium-4-yl)-1-(3,4-dimethoxyphenyl)ethyl]5-[[[2-[[(3R)-1-methyl-3-piperidyl]methoxy]-2-oxo-1-phenyl-ethyl]amino]methyl]thiophene-2-carboxylate]
[1]; [2]
  IC50: 1 to 10 nM
Human recombinant PDE4B2; [3]
  IC50: 1 to 10 nM

## COc1ccc([C@H](Cc2c(Cl)c[n+]([O-])cc2Cl)OC(=O)c2ccc(CNC(CO)(C(=O)OCC34CCN(CC3)CC4)c3ccccc3)s2)cc1OC (stereo partly drawn) [Example 117, [(1S)-2-(3,5-dichloro-1-oxido-pyridin-1-ium-4-yl)-1-(3,4-dimethoxyphenyl)ethyl]5-[[[1-(hydroxymethyl)-2-oxo-1-phenyl-2-(quinuclidin-4-ylmethoxy)ethyl]amino]methyl]thiophene-2-carboxylate]
[1]; [2]
  IC50: < 1 nM
Human recombinant PDE4B2; [3]
  IC50: 1 to 10 nM

## COc1ccc([C@H](Cc2c(Cl)c[n+]([O-])cc2Cl)OC(=O)c2ccc(CNC(C(=O)OCC3CCCCN3C)c3ccccc3)s2)cc1OC (stereo partly drawn) [Example 31, [(1S)-2-(3,5-dichloro-1-oxido-pyridin-1-ium-4-yl)-1-(3,4-dimethoxyphenyl)ethyl] 5-[[[2-[(1-methyl-2-piperidyl)methoxy]-2-oxo-1-phenyl-ethyl]amino]methyl]thiophene-2-carboxylate]
[1]; [2]
  IC50: 10 to 100 nM
Human recombinant PDE4B2; [3]
  IC50: 1 to 10 nM

## COc1ccc([C@H](Cc2c(Cl)c[n+]([O-])cc2Cl)OC(=O)c2ccc(CNC(CO)(C(=O)OCC3CCN(C)CC3)c3cccs3)s2)cc1OC (mixture of isomers) [Example 37, [(1S)-2-(3,5-dichloro-1-oxido-pyridin-1-ium-4-yl)-1-(3,4-dimethoxyphenyl)ethyl]5-[[[1-(hydroxymethyl)-2-[(1-methyl-4-piperidyl)methoxy]-2-oxo-1-(2-thienyl)ethyl]amino]methyl]thiophene-2-carboxylate]
[1]; [2]
  IC50: 1 to 10 nM
Human recombinant PDE4B2; [3]
  IC50: < 1 nM

## COCCOc1cc([C@H](Cc2c(Cl)c[n+]([O-])cc2Cl)OC(=O)c2ccc(CNC(C(=O)OCC3CCN(C)CC3)c3ccccc3)s2)ccc1OC(F)F (stereo partly drawn) [Example 113, [(1S)-2-(3,5-dichloro-1-oxido-pyridin-1-ium-4-yl)-1-[4-(difluoromethoxy)-3-(2-methoxyethoxy)phenyl]ethyl] 5-[[[2-[(1-methyl-4-piperidyl)methoxy]-2-oxo-1-phenyl-ethyl]amino]methyl]thiophene-2-carboxylate]
[1]; [2]
  IC50: 1 to 10 nM
Human recombinant PDE4B2; [3]
  IC50: 1 to 10 nM

## COc1ccc([C@H](Cc2c(Cl)c[n+]([O-])cc2Cl)OC(=O)c2ccc(CNC(C(=O)OC[C@H]3CN(C)CCN3C)c3ccccc3)s2)cc1OC (stereo partly drawn) [Example 29, [(1S)-2-(3,5-dichloro-1-oxido-pyridin-1-ium-4-yl)-1-(3,4-dimethoxyphenyl)ethyl] 5-[[[2-[[(2R)-1,4-dimethylpiperazin-2-yl]methoxy]-2-oxo-1-phenyl-ethyl]amino]methyl]thiophene-2-carboxylate]
[1]; [2]
  IC50: 10 to 100 nM
Human recombinant PDE4B2; [3]
  IC50: 1 to 10 nM

## COc1ccc([C@H](Cc2c(Cl)c[n+]([O-])cc2Cl)OC(=O)c2ccc(CNCC(C(=O)OCC3CCN(C)CC3)c3ccccc3)s2)cc1OC (stereo partly drawn) [Example 7, [(1S)-2-(3,5-dichloro-1-oxido-pyridin-1-ium-4-yl)-1-(3,4-dimethoxyphenyl)ethyl]5-[[[3-[(1-methyl-4-piperidyl)methoxy]-3-oxo-2-phenyl-propyl]amino]methyl]thiophene-2-carboxylate]
[1]; [2]
  IC50: 10 to 100 nM
Human recombinant PDE4B2; [3]
  IC50: 1 to 10 nM

## COc1ccc([C@H](Cc2c(Cl)c[n+]([O-])cc2Cl)OC(=O)c2ccc(CNC(C(=O)OCC3C[C@H]4CC[C@@H](C3)N4C)c3ccccc3)s2)cc1OC (stereo partly drawn) [Example 114, [(1S)-2-(3,5-dichloro-1-oxido-pyridin-1-ium-4-yl)-1-(3,4-dimethoxyphenyl)ethyl] 5-[[[2-[[(1R,5S)-8-methyl-8-azabicyclo[3.2.1]octan-3-yl]methoxy]-2-oxo-1-phenyl-ethyl]amino]methyl]thiophene-2-carboxylate]
[1]
  IC50: 10 to 100 nM
Human recombinant PDE4B2
  IC50: 1 to 10 nM
